Laboratory results: patent publication US4103019A, “Triterpene derivatives” (Laboratorios Landerlan, S. A., priority 1975, dated 1978)

What was measured:
ulcers (reserpine) = assay: Anti-ulcer action, reserpine-induced ulcers; assay type: in vivo, rats; conditions: intra-peritoneal
Text: Dose mg./Kg. Inhibition %
Reserpine 5 Intra-peritoneal

ulcers (phenylbutazone) = assay: Anti-ulcer action, phenylbutazone-induced ulcers; assay type: in vivo, rats; conditions: oral
[1] = tested on: different artificially invoked conditions; assay: Neurotropic, musculotropic, antihistaminic, anti-ulcer and healing activity in different artificially invoked conditions; assay type: in vivo; conditions: different artificially invoked conditions in mice, rats, Guinea pigs, rabbits and dogs
[2] = tested on: ulcers (Psychosomatic Frustration, M. Bonfils); assay: Anti-ulcer action, psychosomatic frustration ulcers (M. Bonfils); assay type: in vivo, rats; conditions: oral
[3] = tested on: ulcers (Pyloric Ligature, M. Shay); assay: Anti-ulcer action, pyloric ligature ulcers (M. Shay); assay type: in vivo, rats

**Q.** `CC1(C(=O)OCC2CCC[N+]2(C)C)CCC2(C)CCC3(C)C(=CC(=O)C4C5(C)CCC(O)C(C)(C)C5CCC43C)C2C1` (centres unmarked) [Example 4, 2(glycyrrhetinoyl methyl) N-methylpyrrolidine methylbromide] was tested. Which Inhibition % (ulcers (reserpine); 5 mg./Kg.) did it give?
**A.** 8%

**Q.** And the Inhibition % (ulcers (reserpine); 10 mg./Kg.)?
**A.** 47%

**Q.** What about the Inhibition % (ulcers (reserpine); 25 mg./Kg.) of the same compound?
**A.** 13%

**Q.** What about the Inhibition % (ulcers (phenylbutazone); 5 mg./Kg.) of the same compound?
**A.** 22%

**Q.** What about the Inhibition % (ulcers (phenylbutazone); 10 mg./Kg.) of the same compound?
**A.** 23%

**Q.** What about the “activity as neurotropic, musculotropic antihistaminic, anti-ulcer and healing agents” value [1] of the same compound?
**A.** outstanding activity

**Q.** What about the Inhibition % ([2]; 5 mg./Kg.) of the same compound?
**A.** 52%

**Q.** And the Inhibition % ([2]; 10 mg./Kg.)?
**A.** 43%

**Q.** And the Inhibition % ([2]; 50 mg./Kg.)?
**A.** 25%

**Q.** What about the Inhibition % ([3]; 2.5 mg./Kg., intra-dermal) of the same compound?
**A.** 27%

**Q.** And the Inhibition % ([3]; 5 mg./Kg., intra-dermal)?
**A.** 29%

**Q.** And the Inhibition % ([3]; 5 mg./Kg., intra-peritoneal)?
**A.** 65%

**Q.** What about the Inhibition % ([3]; 10 mg./Kg., intra-dermal) of the same compound?
**A.** 24%

**Q.** And the Inhibition % ([3]; 10 mg./Kg., intra-peritoneal)?
**A.** 55%

**Q.** With `CC1(C(=O)OCC2CCC[N+]2(C)C)CCC2(C)CCC3(C)C(=CC(=O)C4C5(C)CCC(O)C(C)(C)C5CCC43C)C2C1` (centres unmarked) [Example 3, 2-(glycyrrhetinoylmethyl) N-methyl pyrrolidine methylsulfate] as the compound, how does the Inhibition % (ulcers (reserpine); 5 mg./Kg.) read?
**A.** 42%

**Q.** What about the Inhibition % (ulcers (reserpine); 10 mg./Kg.) of the same compound?
**A.** 25%

**Q.** And the Inhibition % (ulcers (reserpine); 25 mg./Kg.)?
**A.** 25%

**Q.** What about the “activity as neurotropic, musculotropic antihistaminic, anti-ulcer and healing agents” value [1] of the same compound?
**A.** outstanding activity

**Q.** And the Inhibition % ([2]; 5 mg./Kg.)?
**A.** 42%

**Q.** And the Inhibition % ([2]; 10 mg./Kg.)?
**A.** 33%

**Q.** And the Inhibition % ([2]; 20 mg./Kg.)?
**A.** 18%

**Q.** What about the Inhibition % ([3]; 2.5 mg./Kg., intra-peritoneal) of the same compound?
**A.** 52%

**Q.** What about the Inhibition % ([3]; 5 mg./Kg., intra-dermal) of the same compound?
**A.** 36%

**Q.** And the Inhibition % ([3]; 10 mg./Kg., intra-peritoneal)?
**A.** 69%

**Q.** What about the Inhibition % ([3]; 15 mg./Kg., intra-peritoneal) of the same compound?
**A.** 48%

**Q.** What about the Inhibition % ([3]; 25 mg./Kg., intra-peritoneal) of the same compound?
**A.** 69%
